Here are results for four compounds from ChEMBL document CHEMBL1933021, “Novel and selective spiroindoline-based inhibitors of Sky kinase” (Bioorg Med Chem Lett, 2012).

Molecules are shown by their SMILES. pIC50: −log10 of the molar value. In brackets after ≈: the same amount, converted by molar mass.

Series [1] is described as follows: Inhibition of p38.
Series [2] concerns the target RAC-alpha serine/threonine-protein kinase (Homo sapiens, UniProt P31749). Nature of the series: Inhibition of AKT1.
The target of series [3] is T1, Tyrosine-protein kinase receptor UFO (Homo sapiens, UniProt P30530).
T1 sequence (P30530 whole entry): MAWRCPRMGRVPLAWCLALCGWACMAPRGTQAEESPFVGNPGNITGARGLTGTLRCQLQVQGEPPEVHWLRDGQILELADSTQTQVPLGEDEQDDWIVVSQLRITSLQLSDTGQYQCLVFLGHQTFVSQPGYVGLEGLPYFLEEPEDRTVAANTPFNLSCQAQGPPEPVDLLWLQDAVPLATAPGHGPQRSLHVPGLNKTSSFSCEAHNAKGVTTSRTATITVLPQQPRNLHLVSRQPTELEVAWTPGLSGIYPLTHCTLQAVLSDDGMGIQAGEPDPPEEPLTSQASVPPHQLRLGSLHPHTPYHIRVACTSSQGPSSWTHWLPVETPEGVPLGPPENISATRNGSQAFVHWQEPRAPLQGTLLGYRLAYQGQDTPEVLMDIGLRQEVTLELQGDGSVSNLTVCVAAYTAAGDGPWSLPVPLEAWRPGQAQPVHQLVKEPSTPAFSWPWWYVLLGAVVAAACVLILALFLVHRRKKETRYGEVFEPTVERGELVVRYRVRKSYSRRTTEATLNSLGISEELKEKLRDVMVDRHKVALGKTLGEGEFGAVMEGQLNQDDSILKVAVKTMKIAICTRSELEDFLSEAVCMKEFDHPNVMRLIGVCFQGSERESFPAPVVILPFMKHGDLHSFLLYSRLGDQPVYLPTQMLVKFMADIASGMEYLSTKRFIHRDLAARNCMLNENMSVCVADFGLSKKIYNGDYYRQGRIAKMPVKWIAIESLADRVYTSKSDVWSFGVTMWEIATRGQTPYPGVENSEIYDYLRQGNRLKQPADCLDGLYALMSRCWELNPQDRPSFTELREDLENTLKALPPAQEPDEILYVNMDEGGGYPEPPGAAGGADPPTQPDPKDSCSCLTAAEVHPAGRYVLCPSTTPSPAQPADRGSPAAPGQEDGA
Nature of the series: Inhibition of Axl.

For series [4], the target named is Serine/threonine-protein kinase Sgk1 (Homo sapiens, UniProt O00141). Nature of the series: Inhibition of Sgk.
The target in series [5] is High affinity nerve growth factor receptor (Homo sapiens, UniProt P04629). Nature of the series: Inhibition of TrkA.
The target of series [6] is Vascular endothelial growth factor receptor 2 (Homo sapiens, UniProt P35968). Nature of the series: Inhibition of VEGFR2.
The nature of series [7]: Half life in human liver microsomes. In kind it is ADME, Microsome. A general note: Liver microsomes are vesicles of endoplasmic reticulum, rich in cytochrome P450 enzymes.
Series [8] can be described thus: Aqueous solubility of compound at pH 6.5. In kind it is physicochemical.
The target of series [9] is Cyclin-dependent kinase 2 (Homo sapiens, UniProt P24941). Nature of the series: Inhibition of Cdk2.
Series [10] addresses Serine/threonine-protein kinase Chk2 (Homo sapiens, UniProt O96017). Nature of the series: Inhibition of Chk2.
For series [11], the target named is MAP kinase-activated protein kinase 2 (Homo sapiens, UniProt P49137). Nature of the series: Inhibition of MAPKAP-2.
MAP kinase-activated protein kinase 2, sequence (P49137 whole entry): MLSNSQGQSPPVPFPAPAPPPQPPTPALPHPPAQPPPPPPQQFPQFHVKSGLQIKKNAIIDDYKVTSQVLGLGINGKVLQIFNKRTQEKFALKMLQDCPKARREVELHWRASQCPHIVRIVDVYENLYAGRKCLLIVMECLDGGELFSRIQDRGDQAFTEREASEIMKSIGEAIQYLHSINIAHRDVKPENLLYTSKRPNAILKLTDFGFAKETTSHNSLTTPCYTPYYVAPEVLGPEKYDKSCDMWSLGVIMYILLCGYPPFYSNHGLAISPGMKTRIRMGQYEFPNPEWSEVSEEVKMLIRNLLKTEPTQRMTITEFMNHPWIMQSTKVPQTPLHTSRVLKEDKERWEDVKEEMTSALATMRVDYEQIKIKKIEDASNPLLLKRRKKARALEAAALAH
Series [12] deals with Glycogen synthase kinase-3 beta (Homo sapiens, UniProt P49841). Nature of the series: Inhibition of Gsk3beta.
Glycogen synthase kinase-3 beta, sequence (P49841 whole entry): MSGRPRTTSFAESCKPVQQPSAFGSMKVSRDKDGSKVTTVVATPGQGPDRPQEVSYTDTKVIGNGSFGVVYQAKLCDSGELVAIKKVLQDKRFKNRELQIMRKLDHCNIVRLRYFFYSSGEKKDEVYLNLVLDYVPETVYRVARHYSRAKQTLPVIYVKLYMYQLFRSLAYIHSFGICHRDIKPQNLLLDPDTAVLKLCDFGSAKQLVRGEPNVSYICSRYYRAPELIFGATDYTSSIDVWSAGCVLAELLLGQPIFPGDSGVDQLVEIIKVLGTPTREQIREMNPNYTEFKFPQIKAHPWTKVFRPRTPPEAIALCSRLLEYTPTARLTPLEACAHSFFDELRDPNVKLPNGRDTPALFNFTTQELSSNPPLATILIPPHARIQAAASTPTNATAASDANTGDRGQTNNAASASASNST
Series [13] deals with Fibroblast growth factor receptor 1 (Homo sapiens, UniProt P11362). Nature of the series: Inhibition of FGFR1.
Fibroblast growth factor receptor 1, sequence (P11362 whole entry): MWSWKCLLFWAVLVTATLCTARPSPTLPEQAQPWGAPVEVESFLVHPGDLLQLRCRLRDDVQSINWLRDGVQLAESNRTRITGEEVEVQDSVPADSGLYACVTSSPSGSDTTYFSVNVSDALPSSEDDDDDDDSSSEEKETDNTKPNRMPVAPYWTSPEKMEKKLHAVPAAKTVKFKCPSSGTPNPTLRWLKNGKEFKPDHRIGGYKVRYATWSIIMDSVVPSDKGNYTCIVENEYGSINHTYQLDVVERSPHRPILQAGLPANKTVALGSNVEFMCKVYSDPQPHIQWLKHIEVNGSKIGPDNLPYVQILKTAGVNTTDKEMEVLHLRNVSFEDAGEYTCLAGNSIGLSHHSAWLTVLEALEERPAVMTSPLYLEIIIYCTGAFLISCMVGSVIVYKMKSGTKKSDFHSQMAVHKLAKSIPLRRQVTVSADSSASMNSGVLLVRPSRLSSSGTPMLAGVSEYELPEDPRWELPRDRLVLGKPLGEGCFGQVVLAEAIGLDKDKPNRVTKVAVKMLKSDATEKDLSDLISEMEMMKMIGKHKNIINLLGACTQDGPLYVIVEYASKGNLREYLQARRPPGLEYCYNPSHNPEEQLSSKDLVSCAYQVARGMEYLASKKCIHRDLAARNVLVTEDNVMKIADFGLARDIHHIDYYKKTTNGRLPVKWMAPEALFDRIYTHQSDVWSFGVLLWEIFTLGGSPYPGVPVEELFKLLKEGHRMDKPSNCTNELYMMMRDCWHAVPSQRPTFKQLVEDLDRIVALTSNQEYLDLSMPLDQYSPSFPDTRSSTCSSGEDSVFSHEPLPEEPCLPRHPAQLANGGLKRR
The nature of series [14]: Permeability across human Caco2 cells. In kind it is ADME, cell-based. The following applies: Caco-2, read-out: permeability. (In general: Caco-2 monolayers are a common model of the intestinal barrier.)
The target in the next series is CYP2D6 (Homo sapiens, UniProt P10635). Nature of the series: Inhibition of CYP2D6 using dextromethorphan as substrate at 3 uM. In kind it is ADME. The following applies: probe dextromethorphan.
Series [15] deals with T2, Tyrosine-protein kinase Mer (Homo sapiens, UniProt Q12866).
T2 sequence (Q12866 whole entry): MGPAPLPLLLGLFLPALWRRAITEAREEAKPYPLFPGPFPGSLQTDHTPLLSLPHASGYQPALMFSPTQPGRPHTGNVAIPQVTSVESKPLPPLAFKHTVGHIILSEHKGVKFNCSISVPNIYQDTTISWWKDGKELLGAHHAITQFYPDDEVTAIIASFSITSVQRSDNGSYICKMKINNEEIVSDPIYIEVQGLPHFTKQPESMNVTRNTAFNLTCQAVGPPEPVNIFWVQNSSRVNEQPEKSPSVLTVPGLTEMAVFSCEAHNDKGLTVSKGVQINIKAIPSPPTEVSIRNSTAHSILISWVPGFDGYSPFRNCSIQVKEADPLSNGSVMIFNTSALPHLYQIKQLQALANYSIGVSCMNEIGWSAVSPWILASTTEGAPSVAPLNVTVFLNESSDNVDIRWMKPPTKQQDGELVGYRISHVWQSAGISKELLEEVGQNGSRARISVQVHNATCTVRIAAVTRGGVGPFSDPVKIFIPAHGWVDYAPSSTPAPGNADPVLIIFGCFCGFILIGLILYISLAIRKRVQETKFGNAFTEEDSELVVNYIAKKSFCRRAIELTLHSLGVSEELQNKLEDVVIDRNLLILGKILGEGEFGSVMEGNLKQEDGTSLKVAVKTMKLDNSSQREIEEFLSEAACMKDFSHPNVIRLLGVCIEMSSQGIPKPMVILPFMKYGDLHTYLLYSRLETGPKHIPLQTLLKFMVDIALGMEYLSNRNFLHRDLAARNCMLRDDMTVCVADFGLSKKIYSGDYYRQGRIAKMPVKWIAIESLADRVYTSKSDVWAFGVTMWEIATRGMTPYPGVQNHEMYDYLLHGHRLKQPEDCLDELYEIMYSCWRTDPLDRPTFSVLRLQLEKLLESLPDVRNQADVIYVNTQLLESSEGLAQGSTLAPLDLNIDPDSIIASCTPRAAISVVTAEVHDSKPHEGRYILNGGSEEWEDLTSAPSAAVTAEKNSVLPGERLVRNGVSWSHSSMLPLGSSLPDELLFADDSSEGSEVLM
Nature of the series: Inhibition of Mer.

A further series addresses Aurora kinase A (Homo sapiens, UniProt O14965). Nature of the series: Inhibition of Aurora-A.
The target in series [16] is Serine/threonine-protein kinase PAK 4 (Homo sapiens, UniProt O96013). Nature of the series: Inhibition of Pak4.
Serine/threonine-protein kinase PAK 4, sequence (O96013 whole entry): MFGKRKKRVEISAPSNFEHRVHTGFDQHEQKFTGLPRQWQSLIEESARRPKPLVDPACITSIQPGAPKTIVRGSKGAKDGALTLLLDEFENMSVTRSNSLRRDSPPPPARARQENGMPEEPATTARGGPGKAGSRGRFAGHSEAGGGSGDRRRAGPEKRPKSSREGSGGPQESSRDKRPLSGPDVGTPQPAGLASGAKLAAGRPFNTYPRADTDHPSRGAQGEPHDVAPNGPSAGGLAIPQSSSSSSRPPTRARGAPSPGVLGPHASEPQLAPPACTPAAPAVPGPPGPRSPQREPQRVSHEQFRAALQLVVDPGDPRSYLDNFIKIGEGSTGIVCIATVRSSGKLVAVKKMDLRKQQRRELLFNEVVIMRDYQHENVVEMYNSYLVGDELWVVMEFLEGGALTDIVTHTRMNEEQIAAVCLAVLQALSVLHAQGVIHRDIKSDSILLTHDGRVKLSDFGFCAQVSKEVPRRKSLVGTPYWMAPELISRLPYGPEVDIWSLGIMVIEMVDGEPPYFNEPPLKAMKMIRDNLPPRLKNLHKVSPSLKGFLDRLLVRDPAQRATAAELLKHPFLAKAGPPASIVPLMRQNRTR
Another series concerns the target Insulin receptor (Homo sapiens, UniProt P06213). Nature of the series: Inhibition of INSR.
Series [17] concerns the target Mitogen-activated protein kinase 1 (Homo sapiens, UniProt P28482). Nature of the series: Inhibition of Erk2.
Series [18] has as its target Hepatocyte growth factor receptor (Homo sapiens, UniProt P08581). Nature of the series: Inhibition of HGFR.
Series [19] addresses Tyrosine-protein kinase Lck (Homo sapiens, UniProt P06239). Nature of the series: Inhibition of Lck.
A further series has as its system Rattus norvegicus. Nature of the series: Volume of distribution at steady state in po dosed Sprague-Dawley rat. The following applies: in vivo. In kind it is ADME, organism-based.
Another series has as its target Cytochrome P450 2D6 (Homo sapiens, UniProt P10635). Nature of the series: Inhibition of CYP2D6 using dextromethorphan as substrate. In kind it is ADME.
The nature of series [20]: Half life in po dosed Sprague-Dawley rat. In kind it is ADME, organism-based. The following applies: in vivo.
The nature of series [21]: Clearance in po dosed Sprague-Dawley rat. In kind it is ADME, organism-based. The following applies: in vivo.
Series [22] is described as follows: Oral bioavailability in Sprague-Dawley rat. In kind it is ADME, organism-based. The following applies: in vivo.

Tyrosine-protein kinase Lck, sequence (P06239 whole entry): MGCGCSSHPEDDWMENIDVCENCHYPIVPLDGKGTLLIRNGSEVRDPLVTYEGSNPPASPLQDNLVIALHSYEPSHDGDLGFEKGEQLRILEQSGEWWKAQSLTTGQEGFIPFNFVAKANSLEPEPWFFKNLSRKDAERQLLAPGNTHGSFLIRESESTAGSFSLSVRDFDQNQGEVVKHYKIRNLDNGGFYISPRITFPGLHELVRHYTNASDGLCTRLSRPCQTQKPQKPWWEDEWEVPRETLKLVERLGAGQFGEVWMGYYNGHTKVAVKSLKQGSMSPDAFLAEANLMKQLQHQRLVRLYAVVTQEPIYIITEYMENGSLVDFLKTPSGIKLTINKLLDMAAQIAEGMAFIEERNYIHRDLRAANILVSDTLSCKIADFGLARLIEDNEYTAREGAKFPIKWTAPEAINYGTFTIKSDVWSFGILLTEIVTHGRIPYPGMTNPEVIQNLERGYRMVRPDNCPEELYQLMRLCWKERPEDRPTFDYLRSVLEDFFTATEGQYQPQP
Serine/threonine-protein kinase Chk2, sequence (O96017 whole entry): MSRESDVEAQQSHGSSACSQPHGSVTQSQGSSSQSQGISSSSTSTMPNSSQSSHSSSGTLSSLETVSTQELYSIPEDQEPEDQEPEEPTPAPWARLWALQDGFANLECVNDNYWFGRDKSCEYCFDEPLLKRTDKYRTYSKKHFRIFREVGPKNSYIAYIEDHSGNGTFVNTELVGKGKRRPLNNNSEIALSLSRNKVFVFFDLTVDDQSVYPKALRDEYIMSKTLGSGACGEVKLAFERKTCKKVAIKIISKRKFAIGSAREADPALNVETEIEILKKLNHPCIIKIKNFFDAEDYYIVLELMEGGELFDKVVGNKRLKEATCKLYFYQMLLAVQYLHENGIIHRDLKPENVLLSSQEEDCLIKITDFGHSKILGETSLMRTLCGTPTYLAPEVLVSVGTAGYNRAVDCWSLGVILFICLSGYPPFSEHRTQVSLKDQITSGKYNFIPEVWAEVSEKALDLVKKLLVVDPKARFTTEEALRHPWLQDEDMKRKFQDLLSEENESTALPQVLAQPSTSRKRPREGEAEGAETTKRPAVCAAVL
Hepatocyte growth factor receptor, sequence (P08581 whole entry): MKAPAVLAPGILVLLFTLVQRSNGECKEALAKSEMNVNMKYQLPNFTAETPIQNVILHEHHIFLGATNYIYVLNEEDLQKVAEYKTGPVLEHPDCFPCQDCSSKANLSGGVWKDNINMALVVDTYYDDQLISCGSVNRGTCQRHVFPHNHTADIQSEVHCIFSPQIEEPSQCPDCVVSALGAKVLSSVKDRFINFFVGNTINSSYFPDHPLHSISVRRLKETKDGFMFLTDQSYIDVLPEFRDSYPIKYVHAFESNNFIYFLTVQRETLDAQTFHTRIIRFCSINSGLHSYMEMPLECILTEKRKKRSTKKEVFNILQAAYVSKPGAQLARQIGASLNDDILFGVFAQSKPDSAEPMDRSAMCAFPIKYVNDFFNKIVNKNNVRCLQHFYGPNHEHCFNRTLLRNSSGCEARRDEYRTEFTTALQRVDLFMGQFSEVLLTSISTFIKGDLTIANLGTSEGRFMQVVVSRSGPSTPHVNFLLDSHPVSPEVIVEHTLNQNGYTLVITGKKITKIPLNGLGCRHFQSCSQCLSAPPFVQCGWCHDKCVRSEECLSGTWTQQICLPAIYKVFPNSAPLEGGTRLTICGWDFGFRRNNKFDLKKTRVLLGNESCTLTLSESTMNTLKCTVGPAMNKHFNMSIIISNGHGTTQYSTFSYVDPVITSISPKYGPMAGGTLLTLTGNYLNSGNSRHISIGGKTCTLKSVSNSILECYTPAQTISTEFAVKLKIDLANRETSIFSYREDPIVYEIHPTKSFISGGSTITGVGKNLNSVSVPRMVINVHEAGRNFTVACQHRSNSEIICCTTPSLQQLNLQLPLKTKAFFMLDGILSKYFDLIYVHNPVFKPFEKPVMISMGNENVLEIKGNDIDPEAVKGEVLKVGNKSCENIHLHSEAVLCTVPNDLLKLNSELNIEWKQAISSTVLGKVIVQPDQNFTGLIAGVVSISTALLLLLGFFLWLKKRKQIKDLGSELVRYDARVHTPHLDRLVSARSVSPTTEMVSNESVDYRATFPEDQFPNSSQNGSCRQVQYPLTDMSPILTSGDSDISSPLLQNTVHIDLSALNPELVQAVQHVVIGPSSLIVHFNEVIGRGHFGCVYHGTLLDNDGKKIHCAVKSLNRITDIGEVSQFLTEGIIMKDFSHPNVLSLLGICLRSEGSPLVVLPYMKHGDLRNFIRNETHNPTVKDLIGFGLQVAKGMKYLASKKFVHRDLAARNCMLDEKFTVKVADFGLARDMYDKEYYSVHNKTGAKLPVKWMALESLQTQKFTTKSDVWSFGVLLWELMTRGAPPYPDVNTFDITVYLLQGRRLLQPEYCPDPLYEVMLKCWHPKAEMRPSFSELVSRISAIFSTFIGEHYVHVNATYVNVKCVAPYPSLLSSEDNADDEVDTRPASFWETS
Mitogen-activated protein kinase 1, sequence (P28482 whole entry): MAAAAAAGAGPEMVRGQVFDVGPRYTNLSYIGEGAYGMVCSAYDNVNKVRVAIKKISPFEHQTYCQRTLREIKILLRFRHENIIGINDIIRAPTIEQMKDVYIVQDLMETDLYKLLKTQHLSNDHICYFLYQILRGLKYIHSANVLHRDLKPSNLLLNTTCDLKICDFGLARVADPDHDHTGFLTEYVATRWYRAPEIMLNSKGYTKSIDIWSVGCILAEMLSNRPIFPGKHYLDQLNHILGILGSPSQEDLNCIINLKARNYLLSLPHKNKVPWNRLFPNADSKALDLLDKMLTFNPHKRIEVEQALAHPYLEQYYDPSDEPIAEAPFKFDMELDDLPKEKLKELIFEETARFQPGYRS

In general, pIC50 refers to the negative decadic logarithm of the IC50, by convention in mol/L. The low end stands for a high IC50, the high end for a low IC50. By half-life is commonly meant the time in which the quantity being followed falls by half. A lower half-life goes with rapid decline. Broadly, the solubility is how much of the substance goes into solution per volume. For orientation: inhibition means the percentage by which the read-out fell short of the control. Read a low inhibition as a response near the control. As to `C[C@@H]1CCC(N2CC[C@]3(CN(C(=O)c4cc5ccc(F)cc5[nH]4)c4ccccc43)C2)CN1` (some centres undefined), the pIC50 is less than 4.52 in series [1]; less than 4.52 in series [2]; 4.62 in [3]; less than 4.52 in series [4]; less than 4.52 in [5]; 4.66 in series [6]. The pIC50 in [9] was less than 4.52; in [10] it was less than 4.52; in [11], less than 4.52; in [12], less than 4.52; in series [13] it was 4.64; in series [15], 6.01. Besides, the pIC50 (at Aurora kinase A; in [16]; against Insulin receptor; in [17]) was less than 4.52 throughout. This compound returned a half-life in series [7] of 44 min. The solubility in series [8] came to 11.7 µM (≈ 5.06 µg/mL). Moreover, the Papp in series [14] worked out at 5.13 ×10⁻⁶ cm/s. Also, 3 µM produced 94% inhibition against CYP2D6.

On to `O=C(c1cc2cc(F)ccc2[nH]1)N1C[C@]2(CCN(C3CCCNC3)C2)c2ccccc21` (some centres undefined), for which the pIC50 in series [1] was less than 4.52; in [3], 4.71; in series [9] it was less than 4.52; in [10], less than 4.52; in [11], less than 4.52; in series [12], less than 4.52. The pIC50 is less than 4.52 in series [13]; less than 4.52 in [18]; 5.16 in [15]; less than 4.52 in [16]; less than 4.52 in [19].

For `C[C@@H]1CCC(N2CC[C@]3(CN(C(=O)c4cc5ccccc5[nH]4)c4ccccc43)C2)CN1` (some centres undefined), the pIC50 in series [1] is less than 4.52; in [3] it was 4.74; in series [9], less than 4.52; in series [10], less than 4.52; in series [11], less than 4.52; in series [12], less than 4.52. Besides, the pIC50 in series [13] was less than 4.52; in series [18], less than 4.52; in [15], 5.63; in [16] it was less than 4.52; in series [19], less than 4.52.

Broadly, the CL/F is clearance divided by bioavailability, as obtained after extravascular dosing. As usually defined, the bioavailability is dose-corrected exposure relative to a reference, in per cent. Higher therefore signals good availability. With `O=C(c1cc2ccc(F)cc2[nH]1)N1C[C@]2(CCN(C3CCNC3)C2)c2ccccc21` (some centres undefined), the pIC50 in [1] is less than 4.52; in series [3], 5.28; in series [9], less than 4.52; in series [10], less than 4.52; in series [11] it was less than 4.52; in [12], less than 4.52. Besides, the negative-log IC50 (pIC50) at Cytochrome P450 2D6 is 6.18; in series [13], less than 4.52; in series [15], 5.61; in series [16], less than 4.52; in series [19], less than 4.52. The Vdss in the series on Rattus norvegicus turned out to be 1.6 L/kg. The half-life is 52 min in series [7] and 240 min in [20]. The compound also showed a solubility in [8] of 7.8 µM (≈ 3.16 µg/mL). Further, the CL/F in series [21] stood at 5 mL/min/kg. In series [22], the bioavailability turned out to be 11%.
